The target in the assay is T1, Human M4 (Homo sapiens, UniProt P08173).
T1 construct: expressed in transfected cells
T1 sequence (P08173 1-479): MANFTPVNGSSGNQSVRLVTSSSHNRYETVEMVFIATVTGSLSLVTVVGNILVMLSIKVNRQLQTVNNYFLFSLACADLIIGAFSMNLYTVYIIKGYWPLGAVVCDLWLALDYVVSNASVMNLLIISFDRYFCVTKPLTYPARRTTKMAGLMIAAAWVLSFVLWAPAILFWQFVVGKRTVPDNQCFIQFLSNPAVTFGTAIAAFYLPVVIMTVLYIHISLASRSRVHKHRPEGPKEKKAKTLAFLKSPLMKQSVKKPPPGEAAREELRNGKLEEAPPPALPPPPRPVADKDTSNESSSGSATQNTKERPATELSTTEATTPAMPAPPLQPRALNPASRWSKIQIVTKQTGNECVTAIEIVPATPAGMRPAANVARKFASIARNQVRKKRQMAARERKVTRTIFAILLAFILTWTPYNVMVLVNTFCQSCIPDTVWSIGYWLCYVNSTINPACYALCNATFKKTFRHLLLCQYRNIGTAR
In words: mAChR M4 cell-based functional assay (calcium flux, PAM mode). The conditions noted are these: for Emax at 30 µM: CHO-K1, % ACh maximum at 30 μM; for Emax at 30 µM / EC50: hM4-Gqi5 CHO-K1 cells; for EC50: concentration-dependent increase in the EC20 acetylcholine response. Set-up: Emax: dose or concentration left out as unconfirmed. In a few lines: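 PAM potency (EC50) and Emax came from four-parameter fits of the rise in EC20 acetylcholine-evoked calcium signal (Fluo-4, FDSS, 1 Hz). Human M4/Gqi5 CHO-K1 stable line; 11-point 1:3 compound series preceded ACh EC20 addition at 144 s, with EC80 ACh added at 230 s.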

Take `[2H]C1([2H])Oc2cc(O[C@H]3CCN(c4nn5c(=O)ccnc5cc4C)[C@H](C)C3)cc(F)c2OC1([2H])[2H]` [Compound 130, 7-((2R,4S)-4-((8-fluoro-2,3-dihydrobenzo[b][1,4]dioxin-6-yl-2,2,3,3-d4)oxy)-2-methylpiperidin-1-yl)-8-methyl-4H-pyrimido[1,2-b]pyridazin-4-one]: the maximum response (Emax) (commonly the greatest response seen or fitted, relative to the assay's reference) at 30 µM is 116% and the EC50 (commonly the concentration giving half of the maximal effect) is 160 nM.
As for `Cc1c(N2CCC(Oc3ccc(C(F)(F)F)cc3)CC2)nn2c(=O)cc(C(F)F)nc2c1C` [Compound 81, 2-(difluoromethyl)-8,9-dimethyl-7-(4-(4-(trifluoromethyl)phenoxy)piperidin-1-yl)-4H-pyrimido[1,2-b]pyridazin-4-one], the Emax at 30 µM was 73% and the EC50 was 2300 nM.
For `[2H]C1([2H])Oc2ccc(OC3CCN(c4nn5c(=O)ccnc5c(COC)c4C)CC3)cc2OC1([2H])[2H]` [Compound 19, 7-(4-((2,3-Dihydrobenzo[b][1,4]dioxin-6-yl-2,2,3,3-d4)oxy)piperidin-1-yl)-9-(methoxymethyl)-8-methyl-4H-pyrimido[1,2-b]pyridazin-4-one], in that order: 75% and 460 nM.
The like results for `Cc1c(N2CCC(Oc3ccc(Cl)cc3)CC2)nn2c(=O)cc(C(F)F)nc2c1C` [Compound 79, 7-(4-(4-chlorophenoxy)piperidin-1-yl)-2-(difluoromethyl)-8,9-dimethyl-4H-pyrimido[1,2-b]pyridazin-4-one] were, in that order, 76% and 358 nM.
The like results for `[2H]C1([2H])Oc2ccc(O[C@H]3CCN(c4nn5c(=O)ccnc5c(C)c4C)C[C@H]3F)cc2OC1([2H])[2H]` [Compound 119, 7-((3R,4S)-4-((2,3-dihydrobenzo[b][1,4]dioxin-6-yl-2,2,3,3-d4)oxy)-3-fluoropiperidin-1-yl)-8,9-dimethyl-4H-pyrimido[1,2-b]pyridazin-4-one] were, in that order, 114% and 51 nM.
For the compound `Cc1c(N2CCC(Oc3ccc4c(c3)OCCO4)CC2)nn2c(=O)ccnc2c1N1CCC1` [Compound 127, 9-(Azetidin-1-yl)-7-(4-((2,3-dihydrobenzo[b][1,4]dioxin-6-yl)oxy)piperidin-1-yl)-8-methyl-4H-pyrimido[1,2-b]pyridazin-4-one], the EC50 turned out to be 1600 nM. Further, under “CHO-K1, read-out: Human M4 Emax (%)*”, the Emax worked out at 58%.
In the case of `Cc1c(N2CC[C@H](Oc3ccc4c(c3)OCCO4)C[C@H]2C)nn2c(=O)ccnc2c1C` [Compound 134, 7-((2R,4S)-4-((2,3-dihydrobenzo[b][1,4]dioxin-6-yl)oxy)-2-methylpiperidin-1-yl)-8,9-dimethyl-4H-pyrimido[1,2-b]pyridazin-4-one], the Emax at 30 µM amounted to 105% and the EC50 was found to be 25 nM.
The like results for `[2H]C1(Oc2ccc3c(c2)OC([2H])([2H])C([2H])([2H])O3)CCN(c2nn3c(=O)cc(COC)nc3cc2C)CC1` [Compound 109, 7-(4-((2,3-dihydrobenzo[b][1,4]dioxin-6-yl-2,2,3,3-d4)oxy)piperidin-1-yl-4-d)-2-(methoxymethyl)-8-methyl-4H-pyrimido[1,2-b]pyridazin-4-one] were, in that order, 97% and 19 nM.
`Cc1cc2nccc(=O)n2nc1N1CCC(Oc2ccc(F)cc2)CC1` [Compound 25, 7-(4-(4-fluorophenoxy)piperidin-1-yl)-8-methyl-4H-pyrimido[1,2-b]pyridazin-4-one]: the Emax at 30 µM is 90% and the EC50 worked out at 296 nM.
As for `[2H]C1(Oc2ccc3c(c2)OC([2H])([2H])C([2H])([2H])O3)CCN(c2nn3c(=O)cc(C(F)(F)F)nc3c(C)c2C)CC1` [Compound 95, 7-(4-((2,3-dihydrobenzo[b][1,4]dioxin-6-yl-2,2,3,3-d4)oxy)piperidin-1-yl-4-d)-8,9-dimethyl-2-(trifluoromethyl)-4H-pyrimido[1,2-b]pyridazin-4-one], the Emax at 30 µM turned out to be 87% and the EC50 amounted to 73 nM.
The like results for `[2H]C1([2H])Oc2ccc(OC3CCN(c4nn5c(=O)c(Cl)c(C)nc5cc4C)CC3)cc2OC1([2H])[2H]` [Compound 17, 3-Chloro-7-(4-((2,3-dihydrobenzo[b][1,4]dioxin-6-yl-2,2,3,3-d4)oxy)piperidin-1-yl)-2,8-dimethyl-4H-pyrimido[1,2-b]pyridazin-4-one] were, in that order, 91% and 12 nM.
As for `[2H]C1([2H])Oc2ccc(O[C@@H]3CCN(c4nn5c(=O)ccnc5c(C)c4C)C[C@@H]3F)cc2OC1([2H])[2H]` [Compound 118, 7-((3S,4R)-4-((2,3-dihydrobenzo[b][1,4]dioxin-6-yl-2,2,3,3-d4)oxy)-3-fluoropiperidin-1-yl)-8,9-dimethyl-4H-pyrimido[1,2-b]pyridazin-4-one], the Emax at 30 µM was found to be 115% and the EC50 was 34 nM.
On to `Cc1cc2nccc(=O)n2nc1N1CC[C@@H](Oc2ccc3c(c2)OCO3)[C@H](F)C1` [Compound 53, 7-((3R,4R)-4-(benzo[d][1,3]dioxol-5-yloxy)-3-fluoropiperidin-1-yl)-8-methyl-4H-pyrimido[1,2-b]pyridazin-4-one], for which the Emax at 30 µM was determined as 86% and the EC50 turned out to be 160 nM.
Take `Cc1cc2nccc(=O)n2nc1N1CC[C@H](Oc2ccc3c(c2)OCCO3)[C@@H](C)C1` (single isomer, unassigned) [Compound 115, 7-((3S,4S) or (3R, 4R))-4-((2,3-dihydrobenzo[b][1,4]dioxin-6-yl)oxy)-3-methylpiperidin-1-yl)-8-methyl-4H-pyrimido[1,2-b]pyridazin-4-one]: the Emax at 30 µM came to 78% and the EC50 was determined as 1560 nM.
As for `[2H]C1(Oc2ccc3c(c2)OCO3)CCN(c2nn3c(=O)cc(C)nc3cc2C)CC1` [Compound 58, 7-(4-(benzo[d][1,3]dioxol-5-yloxy)piperidin-1-yl-4-d)-2,8-dimethyl-4H-pyrimido[1,2-b]pyridazin-4-one], the Emax at 30 µM came to 88% and the EC50 was determined as 52 nM.
As to `[2H]C1([2H])Oc2ccc(OC3CCN(c4nn5c(=O)cc(C6CC6)nc5cc4C)CC3)cc2OC1([2H])[2H]` [Compound 10, 2-Cyclopropyl-7-(4-((2,3-dihydrobenzo[b][1,4]dioxin-6-yl-2,2,3,3-d4)oxy)piperidin-1-yl)-8-methyl-4H-pyrimido[1,2-b]pyridazin-4-one], the Emax at 30 µM came out at 73% and the EC50 came to 87 nM.
The like results for `[2H]C1(Oc2ccc3c(c2)OC([2H])([2H])C([2H])([2H])O3)CCN(c2nn3c(=O)ccnc3c(C)c2C)CC1` [Compound 69, 7-(4-((2,3-dihydrobenzo[b][1,4]dioxin-6-yl-2,2,3,3-d4)oxy)piperidin-1-yl-4-d)-8,9-dimethyl-4H-pyrimido[1,2-b]pyridazin-4-one] were, in that order, 97% and 20 nM.
Take `Cc1cc2nccc(=O)n2nc1N1CC[C@@H](Oc2ccc3c(c2)OCCO3)[C@@H](C)C1` (single isomer, unassigned) [Compound 113, 7-((3R,4S) or (3S,4R))-4-(2,3-dihydrobenzo[b][1,4]dioxin-6-yl)oxy)-3-methylpiperidin-1-yl)-8-methyl-4H-pyrimido[1,2-b]pyridazin-4-one]: the Emax at 30 µM is 96% and the EC50 is 110 nM.

(Values after patent publication US11884676B2, “Substituted pyrimido[1,2-b]pyridazines as positive allosteric modulators of the muscarinic acetylcholine receptor M4” (Vanderbilt University, priority 2020, dated 2024).)
